Assay results from patent publication US10875832B2, “Substituted pyrimidines for treating bacterial infections” (FORGE THERAPEUTICS, INC., priority 2015, dated 2020).
≈ marks a conversion by molar mass, not a printed value.

Experiments:
Format in all cases: cell-based
[1] = system: E. coli ATCC 25922; assay: MIC by broth microdilution, E. coli ATCC 25922, no FBS; conditions: Escherichia coli, ATCC25922, 35° C., 18-24 h
Experimental: (§1) Minimal inhibitory concentrations (MIC) were determined by the broth microdilution method in accordance with the Clinical and Laboratory Standards Institute (CLSI) guidelines. In brief, organism suspensions were adjusted to a 0.5 McFarland standard to yield a final inoculum between 3×10^5 and 7×10^5 colony-forming units (CFU)/mL. Drug dilutions and inocula were made in sterile, cation adjusted Mueller-Hinton Broth (Beckton Dickinson). An inoculum volume of 100 μL was added to wells containing 100 μL of broth with 2-fold serial dilutions of drug. All inoculated microdilution trays were incubated in ambient air at 35° C. for 18-24 h. […] Performance of the assay was monitored by the use of laboratory quality-control strains and levofloxacin, a compound with a defined MIC spectrum, in accordance with CLSI guidelines.

[2] = system: E. coli BW25113; assay: MIC by broth microdilution, E. coli BW25113, no FBS; conditions: Escherichia coli, 35° C., 18-24 h
Experimental: as §1

[3] = system: E. coli imp mutant; assay: MIC by broth microdilution, E. coli imp mutant; conditions: Escherichia coli, read-out: MIC E. coli imp mutant
Experimental: as §1

[4] = system: E. coli delta to IC mutant; assay: MIC by broth microdilution, E. coli delta tolC mutant; conditions: Escherichia coli, read-out: MIC E. coli delta to IC mutant
Experimental: as §1

[5] = system: S. aureus ATCC 29213; assay: MIC by broth microdilution, S. aureus ATCC 29213; conditions: Staphylococcus aureus, ATCC29213; 35° C., 18-24 h
Experimental: as §1

[6] = system: P. aeruginosa 209; assay: MIC by broth microdilution, P. aeruginosa 209; conditions: Pseudomonas aeruginosa, 35° C., 18-24 h
Experimental: as §1

[7] = system: P. aeruginosa 210 delta mexAB-OprM; assay: MIC by broth microdilution, P. aeruginosa 210 delta mexAB-OprM; conditions: Pseudomonas aeruginosa, read-out: MIC P. aeruginosa 210 delta mexAB-OprM
Experimental: as §1

O=C(NCCO)c1ccc(C#CC#Cc2ccc(NCc3nc[nH]c(=O)c3O)cc2)cc1 [Compound 88]
MIC [1]: < 1 µg/mL | MIC [2]: < 1 µg/mL | MIC [3]: < 1 µg/mL | MIC [4]: < 1 µg/mL | MIC [5]: > 32 µg/mL | MIC [6]: > 32 µg/mL | MIC [7]: > 32 µg/mL

O=c1[nH]cnc(CN(CCO)c2ccc(C#Cc3ccc(CN4CCOCC4)cc3)cc2)c1O [Compound 113]
MIC [1]: > 32 µg/mL | MIC [3]: > 32 µg/mL | MIC [4]: > 32 µg/mL

O=c1c(O)cncn1CCc1ccc(C#Cc2ccc(CN3CCOCC3)cc2)cc1 [Compound 73, 5-hydroxy-3-(4-((4-(morpholinomethyl)phenyl)ethynyl)phenethyl)-pyrimidin-4(3H)-one]
MIC [2]: 1 to 8 µg/mL (≈ 2.41 to 19.3 µM) | MIC [5]: > 32 µg/mL | MIC [6]: > 32 µg/mL | MIC [7]: > 32 µg/mL

Cc1nc(C(=O)O)c(O)c(=O)n1CC(=O)c1ccc(-c2ccccc2)cc1 [Compound 82, 1-(2-([1,1′-biphenyl]-4-yl)-2-oxoethyl)-5-hydroxy-2-methyl-6-oxo-1,6-dihydro pyrimidine-4-carboxylic acid]
MIC [1]: > 32 µg/mL | MIC [2]: > 32 µg/mL | MIC [3]: 1 to 8 µg/mL (≈ 2.74 to 22 µM) | MIC [4]: 8 to 32 µg/mL (≈ 22 to 87.8 µM) | MIC [5]: > 32 µg/mL | MIC [6]: > 32 µg/mL | MIC [7]: > 32 µg/mL

Cc1nc(CO)c(O)c(=O)n1CC(O)c1ccc(-c2ccccc2)cc1 (stereo not drawn) [Compound 92]
MIC [1]: > 32 µg/mL | MIC [5]: > 32 µg/mL | MIC [6]: > 32 µg/mL

CCN(CC)CCCNC(=O)c1ccc(C#CC#Cc2ccc(NCc3nc[nH]c(=O)c3O)cc2)cc1 [Compound 76]
MIC [1]: 8 to 32 µg/mL (≈ 16.1 to 64.3 µM) | MIC [2]: 1 to 8 µg/mL (≈ 2.01 to 16.1 µM) | MIC [3]: 1 to 8 µg/mL (≈ 2.01 to 16.1 µM) | MIC [4]: < 1 µg/mL | MIC [5]: > 32 µg/mL | MIC [6]: > 32 µg/mL | MIC [7]: > 32 µg/mL

CNC(=O)c1ccc(C#CC#Cc2ccc(NCc3nc[nH]c(=O)c3O)cc2)cc1 [Compound 72, 4-((4-(((5-hydroxy-6-oxo-1,6-dihydropyrimidin-4-yl)methyl)amino)phenyl)buta-1,3-diyn-1-yl)-N-methylbenzamide]
MIC [1]: < 1 µg/mL | MIC [2]: < 1 µg/mL | MIC [3]: < 1 µg/mL | MIC [4]: < 1 µg/mL | MIC [5]: > 32 µg/mL | MIC [6]: > 32 µg/mL | MIC [7]: > 32 µg/mL

O=C(c1ccc(C#CC#Cc2ccc(NCc3nc[nH]c(=O)c3O)cc2)cc1)N1CCC(N2CCOCC2)CC1 [Compound 78]
MIC [1]: > 32 µg/mL | MIC [2]: 1 to 8 µg/mL (≈ 1.86 to 14.9 µM) | MIC [3]: < 1 µg/mL | MIC [4]: < 1 µg/mL | MIC [5]: > 32 µg/mL | MIC [6]: > 32 µg/mL | MIC [7]: > 32 µg/mL

O=c1[nH]cnc(CCc2ccc(C#Cc3ccc(CN4CCOCC4)cc3)cc2)c1O [Compound 104, 5-hydroxy-6-(4-((4-(morpholinomethyl)phenyl)ethynyl)phenethyl)pyrimidin-4(3H)-one]
MIC [1]: 8 to 32 µg/mL (≈ 19.3 to 77 µM) | MIC [3]: 8 to 32 µg/mL (≈ 19.3 to 77 µM) | MIC [4]: 1 to 8 µg/mL (≈ 2.41 to 19.3 µM)

CCOC(=O)c1nc(C)n(CC(=O)c2ccc(-c3ccccc3)cc2)c(=O)c1O [Compound 84, ethyl 1-(2-([1,1′-biphenyl]-4-yl)-2-oxoethyl)-5-hydroxy-2-methyl-6-oxo-1,6-dihydropyrimidine-4-carboxylate]
MIC [1]: > 32 µg/mL | MIC [2]: > 32 µg/mL | MIC [3]: > 32 µg/mL | MIC [4]: > 32 µg/mL | MIC [5]: > 32 µg/mL | MIC [6]: > 32 µg/mL | MIC [7]: > 32 µg/mL

CNC(=O)c1nc(C)n(CC(O)c2ccc(-c3ccccc3)cc2)c(=O)c1O (stereo not drawn) [Compound 91, 1-(2-([1,1′-biphenyl]-4-yl)-2-hydroxyethyl)-5-hydroxy-N,2-dimethyl-6-oxo-1,6-dihydropyrimidine-4-carboxamide]
MIC [1]: > 32 µg/mL | MIC [2]: > 32 µg/mL | MIC [3]: > 32 µg/mL | MIC [4]: 8 to 32 µg/mL (≈ 21.1 to 84.3 µM) | MIC [5]: 8 to 32 µg/mL (≈ 21.1 to 84.3 µM) | MIC [6]: > 32 µg/mL | MIC [7]: > 32 µg/mL

CN(C)C1CCN(C(=O)c2ccc(C#CC#Cc3ccc(NCc4nc[nH]c(=O)c4O)cc3)cc2)C1 (stereo not drawn) [Compound 100]
MIC [1]: 1 to 8 µg/mL (≈ 2.08 to 16.6 µM) | MIC [2]: 1 to 8 µg/mL (≈ 2.08 to 16.6 µM) | MIC [3]: < 1 µg/mL | MIC [4]: < 1 µg/mL | MIC [5]: > 32 µg/mL | MIC [6]: > 32 µg/mL | MIC [7]: > 32 µg/mL

O=c1[nH]cnc(CS(=O)(=O)c2ccc(C#Cc3ccc(CN4CCOCC4)cc3)cc2)c1O [Compound 102]
MIC [1]: 8 to 32 µg/mL (≈ 17.2 to 68.7 µM) | MIC [2]: 8 to 32 µg/mL (≈ 17.2 to 68.7 µM) | MIC [3]: 8 to 32 µg/mL (≈ 17.2 to 68.7 µM) | MIC [4]: 8 to 32 µg/mL (≈ 17.2 to 68.7 µM) | MIC [5]: > 32 µg/mL | MIC [6]: > 32 µg/mL | MIC [7]: 8 to 32 µg/mL (≈ 17.2 to 68.7 µM)

CN(C)C1CCN(C(=O)c2ccc(C#CC#Cc3ccc(NCc4nc[nH]c(=O)c4O)cc3)cc2)CC1 [Compound 74]
MIC [1]: 8 to 32 µg/mL (≈ 16.1 to 64.6 µM) | MIC [2]: 1 to 8 µg/mL (≈ 2.02 to 16.1 µM) | MIC [3]: 1 to 8 µg/mL (≈ 2.02 to 16.1 µM) | MIC [4]: < 1 µg/mL | MIC [5]: > 32 µg/mL | MIC [6]: > 32 µg/mL | MIC [7]: > 32 µg/mL

Cn1cc(O)c(=O)cc1CNC(=O)c1ccc(C#Cc2ccccc2)cc1 [Compound 94]
MIC [1]: > 32 µg/mL | MIC [2]: > 32 µg/mL | MIC [3]: > 32 µg/mL | MIC [4]: > 32 µg/mL | MIC [5]: > 32 µg/mL | MIC [6]: > 32 µg/mL | MIC [7]: > 32 µg/mL

Cc1nc(C(=O)O)c(O)c(=O)n1CC(O)c1ccc(-c2ccccc2)cc1 (stereo not drawn) [Compound 83, 1-(2-([1,1′-biphenyl]-4-yl)-2-hydroxyethyl)-5-hydroxy-2-methyl-6-oxo-1,6-dihydro pyrimidine-4-carboxylic acid]
MIC [1]: > 32 µg/mL | MIC [2]: > 32 µg/mL | MIC [3]: 1 to 8 µg/mL (≈ 2.73 to 21.8 µM) | MIC [4]: 8 to 32 µg/mL (≈ 21.8 to 87.3 µM) | MIC [5]: > 32 µg/mL | MIC [6]: > 32 µg/mL | MIC [7]: > 32 µg/mL

O=C(c1ccc(C#CC#Cc2ccc(NCc3nc[nH]c(=O)c3O)cc2)cc1)N1CC(O)C1 [Compound 86]
MIC [1]: < 1 µg/mL | MIC [2]: < 1 µg/mL | MIC [3]: < 1 µg/mL | MIC [4]: < 1 µg/mL | MIC [5]: > 32 µg/mL | MIC [6]: > 32 µg/mL | MIC [7]: > 32 µg/mL

Cc1nc(C(=O)O)c(O)c(=O)n1C/C(=N/O)c1ccc(-c2ccccc2)cc1 [Compound 95, (E)-1-(2-([1,1′-biphenyl]-4-yl)-2-(hydroxyimino)ethyl)-5-hydroxy-2-methyl-6-oxo-1,6-dihydropyrimidine-4-carboxylic acid]
MIC [1]: > 32 µg/mL | MIC [2]: > 32 µg/mL | MIC [3]: 8 to 32 µg/mL (≈ 21.1 to 84.3 µM) | MIC [4]: > 32 µg/mL | MIC [5]: > 32 µg/mL | MIC [6]: > 32 µg/mL | MIC [7]: > 32 µg/mL

CC(=O)C(Cc1ccc(C#Cc2ccc(CN3CCOCC3)cc2)cc1)n1cncc(O)c1=O (stereo not drawn) [Compound 107]
MIC [1]: > 32 µg/mL | MIC [3]: > 32 µg/mL | MIC [4]: 8 to 32 µg/mL (≈ 17.5 to 69.9 µM)

N#CC(Cc1ccc(C#Cc2ccc(CN3CCOCC3)cc2)cc1)n1cncc(O)c1=O (stereo not drawn) [Compound 106]
MIC [1]: > 32 µg/mL | MIC [3]: 8 to 32 µg/mL (≈ 18.2 to 72.6 µM) | MIC [4]: < 1 µg/mL

CC(C)(O)C(Cc1ccc(C#Cc2ccc(CN3CCOCC3)cc2)cc1)c1nc[nH]c(=O)c1O (stereo not drawn) [Compound 112]
MIC [1]: 8 to 32 µg/mL (≈ 16.9 to 67.6 µM) | MIC [3]: 1 to 8 µg/mL (≈ 2.11 to 16.9 µM) | MIC [4]: < 1 µg/mL

O=c1c(O)cncn1CCc1ccc(C#Cc2ccc(CN3CCOCC3)cc2)cc1 [Compound 105, 5-hydroxy-3-(4-((4-(morpholinomethyl)phenyl)ethynyl)phenethyl)pyrimidin-4(3H)-one]
MIC [1]: 8 to 32 µg/mL (≈ 19.3 to 77 µM) | MIC [3]: 1 to 8 µg/mL (≈ 2.41 to 19.3 µM) | MIC [4]: 1 to 8 µg/mL (≈ 2.41 to 19.3 µM)

O=c1c(O)cccn1C(CO)Cc1ccc(C#Cc2ccc(CN3CCOCC3)cc2)cc1 (stereo not drawn) [Compound 114, 3-hydroxy-1-(1-hydroxy-3-(4-((4-(morpholinomethyl)phenyl)ethynyl)phenyl)propan-2-yl)pyridin-2(1H)-one]
MIC [1]: 8 to 32 µg/mL (≈ 18 to 72 µM) | MIC [3]: 1 to 8 µg/mL (≈ 2.25 to 18 µM) | MIC [4]: 1 to 8 µg/mL (≈ 2.25 to 18 µM)

CC(O)C(Cc1ccc(C#Cc2ccc(CN3CCOCC3)cc2)cc1)n1cncc(O)c1=O (stereo not drawn) [Compound 108]
MIC [1]: > 32 µg/mL | MIC [3]: 8 to 32 µg/mL (≈ 17.4 to 69.6 µM) | MIC [4]: 8 to 32 µg/mL (≈ 17.4 to 69.6 µM)
